Target: T1, MLCK (MLCK2) (Homo sapiens, UniProt Q32MK0)
T1 construct: purchased Thermo Fisher Scientific (Life Technologies) SelectScreen
Assay: SelectScreen LanthaScreen
Format: binding
Conditions: read-out: % displacement
Summary of the method: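 Percent values come from Thermo SelectScreen profiling of NU5455, combining activity and binding assays. CSF1R was run in Z'LYTE format at Km app ATP, and CAMK1 in Adapta format with ATP listed at 10.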

T1 sequence (Q32MK0 whole entry): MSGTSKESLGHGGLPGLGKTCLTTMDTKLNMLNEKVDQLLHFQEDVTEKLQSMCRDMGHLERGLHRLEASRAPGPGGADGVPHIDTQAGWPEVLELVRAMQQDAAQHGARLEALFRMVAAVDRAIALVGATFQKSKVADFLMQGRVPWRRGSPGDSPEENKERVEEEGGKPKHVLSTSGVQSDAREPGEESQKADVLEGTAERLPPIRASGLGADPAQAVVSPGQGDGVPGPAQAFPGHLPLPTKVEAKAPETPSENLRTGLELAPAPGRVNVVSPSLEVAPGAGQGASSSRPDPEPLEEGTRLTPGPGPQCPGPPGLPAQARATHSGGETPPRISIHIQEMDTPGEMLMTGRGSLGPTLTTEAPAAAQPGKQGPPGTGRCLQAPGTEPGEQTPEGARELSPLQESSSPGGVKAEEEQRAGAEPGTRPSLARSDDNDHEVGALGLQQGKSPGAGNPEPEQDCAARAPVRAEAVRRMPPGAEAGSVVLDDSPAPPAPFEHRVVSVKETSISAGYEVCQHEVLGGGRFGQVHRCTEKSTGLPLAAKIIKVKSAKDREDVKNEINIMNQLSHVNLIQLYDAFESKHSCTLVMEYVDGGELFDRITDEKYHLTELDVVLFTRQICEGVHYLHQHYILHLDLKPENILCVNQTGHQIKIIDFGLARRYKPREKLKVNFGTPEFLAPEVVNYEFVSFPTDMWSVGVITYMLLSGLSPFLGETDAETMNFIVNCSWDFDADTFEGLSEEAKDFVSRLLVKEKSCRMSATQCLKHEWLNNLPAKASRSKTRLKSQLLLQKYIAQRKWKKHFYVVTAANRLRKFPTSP

## CN(C(=O)CN1CCOCC1)c1ccc2sc3c(-c4cccc5c(=O)cc(N6CC7CCC(C6)O7)oc45)cccc3c2c1 [NU5455]
  inhibition at 1 µM: 1.5%

From paper PMC6934184, “Selective DNA-PKcs inhibition extends the therapeutic index of localized radiotherapy and chemotherapy” (The Journal of Clinical Investigation, 2019)
